Data: patent publication US20250058002A1, “ELECTROCHEMICAL INHIBITION OF REDOX ACTIVE BACTERIA AND RELATED DEVICES, METHODS AND SYSTEMS” (priority 2023, published 2025)
Where two headings read alike, the source gives them in different places.

What was measured:
[1] = Midpoint potential E1/2 by voltammetry vs Ag/AgCl (3M KCl); format: physicochemical; settings: Example 15 table
Experimental: The purified redox-active molecule can be dissolved in aqueous solution at appropriate concentration in the presence of supporting electrolyte and buffer to select the pH of measurement. For example, the redox-active molecule can be dissolved in 10 μM-10 mM concentrations in distilled, deionized water (DDW). The supporting electrolyte can be a salt such as NaCl or KCl at 0.01-0.5 M concentrations, for example, dissolved in DDW. The buffer can be 10 mM ammonium acetate/3-(N-morpholino)propanesulfonic acid at pH 7, or phosphate-buffered saline (PBS) at pH 7.4, or sodium acetate buffer at pH 5, or di-sodium hydrogen phosphate/potassium dihydrogen phosphate at pH 9, or boric acid/citric acid/trisodium phosphate for a wide range of pH values, for example.
Voltammetric methods are then used to characterize the electrochemical behavior of the redox-active molecule in such solution, with a potentiostat such as a Gamry PC4-300, using a three-electrode setup with working electrode (glassy carbon, or platinum, or gold), counter electrode (platinum wire) and reference electrode (Ag/AgCl (3M KCl), or SCE, or NHE; values are reported relative to Ag/AgCl (3M KCl) which has potential +197 mV vs. NHE at 298K).
For example, cyclic voltammetry may be used. In a cyclic voltammetry experiment phenazines will show a peak on the cathodic sweep (denoted Epc) corresponding to the reduction of the redox molecule.
The reverse, anodic sweep will show a peak (denoted Epa) corresponding to the re-oxidation of the redox molecule. If the electrode reaction is diffusion-controlled and reversible, the cathodic and anodic peak currents will be equal in area, and the mid-point between these peaks may be taken as the formal reduction potential of the redox molecule under the experimental conditions used. This value can interchangeably be referred to as the “midpoint potential” or “mid-peak potential”, denoted E1/2.
PYO was purified from aerobic bacterial cultures and was dissolved in 0.1 M KCl aqueous solution buffered with 10 mM ammonium acetate-3-(N-morpholino)propanesulfonic acid (5 mM each, pH 7) to yield a stock solution concentration of 829 μM PYO. Electrochemical measurements were performed with a Gamry PC4-300 potentiostat. A stationary gold disk electrode (BASi) was used as the working electrode, an Ag/AgCl electrode (RE-51, BASi) as the reference, and a straight platinum wire (BASi) was the counter electrode. Scans were performed between 20 and 500 mV/s in the potential range of around E1/2 (+/−300 mV), at 298 K.
As described in en.wikipedia.org/wiki/Nernst_equation, the Nernst equation relates E1/2 measured at pH 7 to the E1/2 at a different pH by:
[formula] • where E1/2 is in V • h is the number of protons transferred in the electrochemical reaction • e is the number of electrons transferred in the electrochemical reaction

PA14 [2] = test: Redox cycles over 7 days and support of survival (Table 4); format: cell-based, P. aeruginosa
Excerpt: (§1) Phenazines and other redox active compound in the sense of the disclosure can be further characterized by various electrical properties such as a standard electrode potential E° vs. NHE of −500 mV to 500 mV and other properties such as number of redox cycle over a certain period of time (e.g. number of days) as ability to support survival and susceptibility to reduction by enzymes and/or bacterial strains.

PA14 [3] = test: Reduction of redox-active compound by PA14 (Table 4); format: cell-based, P. aeruginosa
Excerpt: as §1

[4] = oxidized form; literature values (footnotes a, c, d); cited from earlier work
[5] = from Wang and Newman (2008), cited from earlier work
[6] = vs NHE at pH7; cited from earlier work
[7] = Standard electrode potential E0' vs NHE of exemplary redox-active compounds (Table 4); format: physicochemical; settings: measured in aqueous solution at pH 7 in this study (footnote b)
Excerpt: as §1

| E1/2 (vs. Ag/AgCl (3M KCl))/mV ([1]; pH 7) [mV] | SMILES | Support survival? (PA14 [2]) | # of Redox cycles over 7 days (PA14 [2]) | Reduction by PA14? (PA14 [3]) | E0' (vs. NHE) (mV) [4] | Redox potentials E (mV) [6] [mV] | also measured |
| --- | --- | --- | --- | --- | --- | --- | --- |
| 0 | C[n+]1c2ccccc2nc2c(C(=O)O)cccc21 |  |  |  |  |  |  |
| 0 | O=C(O)c1cccc2nc3c(C(=O)O)cccc3nc12 |  |  |  |  |  |  |
| −381 | O=C1c2ccc(S(=O)(=O)O)cc2C(=O)C2C=CC(S(=O)(=O)O)=CC12 (stereo not shown) |  |  |  |  |  |  |
|  | O=C1c2ccc(S(=O)(=O)O)cc2C(=O)c2ccc(S(=O)(=O)O)cc21 [2,6-AQDS] | No | No cycle | Yes (very slowly) | −184^d mV | −184 |  |
|  | NC1=C(C(=O)O)C(=O)c2ccccc2C1=O [ACNQ ox/red, ACNQ] |  |  |  |  | −71 |  |
|  | O=C1CCC(=O)N(O)CCC(O)CNC(=O)CCC(=O)N(O)CCC(O)CN1 (stereo not shown) [Alcaligin] |  |  |  |  | −588 |  |
|  | O=C(O)Cc1cc(O)ccc1O [Homogentisic acid (HMA), Homogentisic acid] | No | No cycle |  |  |  | E0' (vs. NHE) (mV) [7]: +306^b mV |
|  | CN(C)c1ccc2nc3ccc(=[N+](C)C)cc-3sc2c1 [Methylene blue (MB), Methylene blue] | No | 3 | Yes | +11 mV |  | E0' (vs. NHE) (mV) [7]: 0 mV |
|  | C[n+]1ccc(-c2cc[n+](C)cc2)cc1 [Paraquat] | No | No cycle | No | −446^c mV |  |  |

| SMILES | E1/2 (vs. Ag/AgCl (3M KCl))/mV ([1]; pH 7) [mV] | Support survival? (PA14 [2]) | # of Redox cycles over 7 days (PA14 [2]) | Reduction by PA14? (PA14 [3]) | E0' (vs. NHE) (mV) [4] | Redox potentials E (mV) [6] [mV] | also measured |
| --- | --- | --- | --- | --- | --- | --- | --- |
| Oc1cccc2nc3ccccc3nc12 [1-Hydroxyphenazine (1-OHPHZ), 1-Hydroxyphenazine] | −371 | Yes | 14 | Yes | −174^a mV |  | E1/2 (vs. Ag/AgCl (3M KCl))/mV ([1]; pH 5): −254 mV; E1/2 (vs. Ag/AgCl (3M KCl))/mV ([1]; pH 6): −323 mV; E1/2 (vs. Ag/AgCl (3M KCl))/mV ([1]; pH 8): −442 mV; E1/2 (vs. Ag/AgCl (3M KCl))/mV ([5]; pH 5): −254 mV; E1/2 (vs. Ag/AgCl (3M KCl))/mV ([5]; pH 6): −323 mV; E1/2 (vs. Ag/AgCl (3M KCl))/mV ([5]; pH 7): −371 mV; E1/2 (vs. Ag/AgCl (3M KCl))/mV ([5]; pH 8): −442 mV |
